The values that follow come from US20110092486A1, “IH CHANNEL INHIBITORS FOR THE PROMOTION OF WAKEFULNESS” (priority 2006, published 2011).

The test system of assay [1] is sleep-wake organisation in the rat. Put plainly: Effect of Ih channel inhibition on sleep-wake organisation in rats (ACSO, EEG/EMG/movement). Format: in vivo. The protocol: Methods: Sleep-wake organization was evaluated in instrumented male rats held on a 12:12 light-dark cycle. Classification of sleep-wake states was measured using an automated system (ACSO, Automatic Classification of Sleep Organization)^[i,ii] that records and processes EEG (cortical), EMG (neck muscle) and movement signals. Subjects were assigned to placebo, Org 34167 or ivabradine treatment groups and signals were recorded on two successive days. The first recording session provided a baseline recording following treatment with placebo only. This baseline day was used to extract a sleep classification algorithm for each individual subject. On the second day recording was started immediately after administration of placebo, Org 34167 (i.p.) or ivabradine (s.c.). Treatments were administered 2.5-3.0 h after lights-on. Data analysis and statistics: EEG, EMG and movement signals were used to classify every 2 second epoch into 6 different sleep stages using the algorithm derived for each individual subject from the baseline day recording. Six sleep-wake states were discriminated—Active waking (AW), Passive waking (PW), Light sleep (LS), Deep sleep (DS), Intermediate sleep (IS) and Rapid Eye Movement sleep (REM). Subsets of the six sleep-wake states were also combined to give Waking (PW and AW), Sleep (IS, REM, LS and DS) and NREM (LS and DS). For each treatment group, the median percentage of time spent in each sleep or waking state were calculated in 3 hour time intervals after drug injection. Significance was calculated by means of the two-sided rank sum test (Mann-Whitney test; P<0.025).

The target in another assay is T1, hHCN1 (Homo sapiens, UniProt O60741).
T1 construct: expressed in transfected cells; host or cells: HEK cells, clone HEK.hHCN1.2H10
T1 sequence (O60741 1-890): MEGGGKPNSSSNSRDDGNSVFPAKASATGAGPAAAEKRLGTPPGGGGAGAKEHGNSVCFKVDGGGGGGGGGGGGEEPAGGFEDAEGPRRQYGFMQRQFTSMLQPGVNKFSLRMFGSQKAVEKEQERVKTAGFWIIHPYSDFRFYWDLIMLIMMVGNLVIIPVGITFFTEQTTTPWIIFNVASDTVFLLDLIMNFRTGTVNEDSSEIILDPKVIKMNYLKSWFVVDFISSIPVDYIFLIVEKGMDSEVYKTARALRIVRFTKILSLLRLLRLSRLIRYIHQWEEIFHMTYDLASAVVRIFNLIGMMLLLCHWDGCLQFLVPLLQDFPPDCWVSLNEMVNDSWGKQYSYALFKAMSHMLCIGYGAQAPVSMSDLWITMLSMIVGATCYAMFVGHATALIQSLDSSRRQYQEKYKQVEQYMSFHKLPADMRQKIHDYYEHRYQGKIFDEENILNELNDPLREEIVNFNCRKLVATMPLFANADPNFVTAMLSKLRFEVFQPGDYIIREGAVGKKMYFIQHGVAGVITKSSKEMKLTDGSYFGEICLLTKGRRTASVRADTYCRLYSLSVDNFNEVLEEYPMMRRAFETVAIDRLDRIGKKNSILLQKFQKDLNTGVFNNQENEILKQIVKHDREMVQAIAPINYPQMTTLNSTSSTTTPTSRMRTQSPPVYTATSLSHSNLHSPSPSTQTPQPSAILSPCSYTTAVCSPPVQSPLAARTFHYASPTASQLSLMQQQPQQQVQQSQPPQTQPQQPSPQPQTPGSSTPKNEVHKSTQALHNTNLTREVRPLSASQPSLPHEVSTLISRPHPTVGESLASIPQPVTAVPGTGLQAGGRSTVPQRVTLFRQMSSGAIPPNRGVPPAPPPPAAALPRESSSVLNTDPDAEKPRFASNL
Put plainly: Determination of Ih channel inhibition, time-dependent current in HEK.hHCN1.2H10 cells. Format: cell-based. Particulars: holding potential −40 mV. On the procedure:
Methods: HEK.hHCN1.2H10 cells growing in culture were dissociated using CDS to lift the cells. They were suspended in high K external solution and used in the assay at a density of 2×10^6 cells.ml^−1. Two separate runs were performed with voltage steps to −80 mV and […] for 1 s; the holding potential in both cases was −40 mV. The amplitude of the time-dependent current (assumed to be all hHCN1) was measured as the difference between the current recorded immediately after the capacity transient on stepping to the test voltage and the current measured after it had reached a steady state amplitude (PeakAmp metric). The amount of inhibition was assessed by calculating the ratio of Post Compound PeakAmp/Pre Compound PeakAmp. Thus a ratio of 1 would indicate no inhibition and 0 would indicate 100% inhibition. Compounds were tested at concentrations between 0.152 μM and 333.3 μM, and a dose-response curve constructed. The IC50 value was obtained (the concentration causing half maximal inhibition) and the pIC50 calculated (the negative logarithm of the molar concentration causing half-maximal inhibition).

A further assay relates to Ih channel. Description: Ih channel inhibition, statement without method.
Setting [2] is: 5 mg/kg s.c., 9-12 h, lights off.
[3] abbreviates: 15 mg/kg s.c., 0-3 h, lights on.
Where [4] appears, read: 15 mg/kg s.c., 3-6 h, lights on.
Where [5] appears, read: 15 mg/kg s.c., 6-9 h, lights on.
The mark [6] stands for this setting: 15 mg/kg s.c., 9-12 h, lights off.
The mark [7] stands for this setting: 50 mg/kg s.c., 0-3 h, lights on.
Where [8] appears, read: 50 mg/kg s.c., 3-6 h, lights on.
The mark [9] stands for this setting: 50 mg/kg s.c., 6-9 h, lights on.
[10] abbreviates: 50 mg/kg s.c., 9-12 h, lights off.
Where [11] appears, read: 0.3 mg/kg i.p., 0-3 h, lights on.
The mark [12] stands for this setting: 0.3 mg/kg i.p., 3-6 h, lights on.
The mark [13] stands for this setting: 0.3 mg/kg i.p., 6-9 h, lights on.
The mark [14] stands for this setting: 0.3 mg/kg i.p., 9-12 h, lights off.
Where [15] appears, read: 1 mg/kg i.p., 9-12 h, lights off.

Like-named read-outs stand apart in the source and are kept apart here. Marks after values point to notes of the source that are not given here.

Turning to `COc1cc2c(cc1OC)CC(=O)N(CCCN(C)C[C@H]1Cc3cc(OC)c(OC)cc31)CC2.Cl` [ivabradine, (+)-3-[3-[N-[4,5-dimethoxybenzocyclobutan-1-(S)-ylmethyl]-N-methylamino]propyl]-7,8-dimethoxy-2,3,4,5-tetrahydro-1H-3-benzazepin-2-one hydrochloride], the “median percentage of time spent in NREM” value is 49.5% in assay [1] (5 mg/kg s.c., 0-3 h, lights on); 68.9% in assay [1] (5 mg/kg s.c., 3-6 h, lights on); 56.2% in assay [1] (5 mg/kg s.c., 6-9 h, lights on); 39.5% in assay [1] (setting [2]); 53.2% in assay [1] (setting [3]); 65.8% in assay [1] (setting [4]). For the same compound, the “median percentage of time spent in NREM” value in assay [1] (setting [5]) is given as 60.0%; in assay [1] (setting [6]), 37.4%; in assay [1] (setting [7]), 41.4%; in assay [1] (setting [8]) it was 63.2%; in assay [1] (setting [9]), 65.0%; in assay [1] (setting [10]) it was 45.8* %. The “median percentage of time spent in Sleep” value in assay [1] (5 mg/kg s.c., 0-3 h, lights on) was 58.2%; in assay [1] (5 mg/kg s.c., 3-6 h, lights on), 84.8%; in assay [1] (5 mg/kg s.c., 6-9 h, lights on) it was 72.9%; in assay [1] (setting [2]), 50.4%; in assay [1] (setting [3]), 60.1* %; in assay [1] (setting [4]), 83.0%. For the same compound, the “median percentage of time spent in Sleep” value is 72.5% in assay [1] (setting [5]); 45.2% in assay [1] (setting [6]); 42.2* % in assay [1] (setting [7]); 80.4% in assay [1] (setting [8]); 81.0% in assay [1] (setting [9]); 57.9* % in assay [1] (setting [10]). Also, the “median percentage of time spent in Waking” value in assay [1] (5 mg/kg s.c., 0-3 h, lights on) was 41.8%; in assay [1] (5 mg/kg s.c., 3-6 h, lights on) it was 15.2%; in assay [1] (5 mg/kg s.c., 6-9 h, lights on), 27.1%; in assay [1] (setting [2]) it was 49.6%; in assay [1] (setting [3]), 39.9* %; in assay [1] (setting [4]), 17.0%. The “median percentage of time spent in Waking” value was 27.5% in assay [1] (setting [5]); 54.8% in assay [1] (setting [6]); 57.8* % in assay [1] (setting [7]); 19.6% in assay [1] (setting [8]); 19.0% in assay [1] (setting [9]); 42.1* % in assay [1] (setting [10]). Besides, the “effect on waking and sleep compared to placebo” value in assay [1] (ivabradine s.c., first 3 hours of the session) is “dose dependently increased waking and decreased sleep”.

Take `C=CC[C@H](N)c1ccccc1-c1noc2ccccc12.Cl` [Org 34167, (S)-2-(1,2-benzisoxazol-3-yl)-α-2-propenylbenzenemethanamine hydrochloride]: the “median percentage of time spent in NREM” value in assay [1] (setting [11]) is on record as 46.4* %; in assay [1] (setting [12]), 63.5%; in assay [1] (setting [13]), 63.8%; in assay [1] (setting [14]), 40.9%; in assay [1] (1 mg/kg i.p., 0-3 h, lights on), 7.6* %; in assay [1] (1 mg/kg i.p., 3-6 h, lights on), 59.1* %. Moreover, the “median percentage of time spent in NREM” value in assay [1] (1 mg/kg i.p., 6-9 h, lights on) is given as 63.9* %; in assay [1] (setting [15]), 42.1%. For the same compound, the “median percentage of time spent in Sleep” value in assay [1] (setting [11]) is listed as 54.1* %; in assay [1] (setting [12]), 80.4%; in assay [1] (setting [13]), 77.9%; in assay [1] (setting [14]) it was 47.3%; in assay [1] (1 mg/kg i.p., 0-3 h, lights on) it was 7.6* %; in assay [1] (1 mg/kg i.p., 3-6 h, lights on), 64.2* %. Moreover, the “median percentage of time spent in Sleep” value in assay [1] (1 mg/kg i.p., 6-9 h, lights on) came out at 81.2%; in assay [1] (setting [15]), 51.8%. Further, the “median percentage of time spent in Waking” value in assay [1] (setting [11]) is listed as 45.9* %; in assay [1] (setting [12]), 19.6%; in assay [1] (setting [13]), 22.1%; in assay [1] (setting [14]) it was 52.7%; in assay [1] (1 mg/kg i.p., 0-3 h, lights on) it was 92.4* %; in assay [1] (1 mg/kg i.p., 3-6 h, lights on), 35.8* %. Further, the “median percentage of time spent in Waking” value in assay [1] (1 mg/kg i.p., 6-9 h, lights on) stood at 18.8%; in assay [1] (setting [15]), 48.2%. Also, in assay [1] (Org 34167 i.p., first 3-6 hours of the session), the “effect on waking and sleep compared to placebo” value is “dose dependently increased waking and decreased sleep”. In addition, the IC50 on hHCN1 (voltage step to −80 mV for 1 s, read-out: IC50 μM −80 mV) stood at 3.2 µM; at hHCN1 (voltage step to −120 mV for 1 s, read-out: IC50 μM −120 mV) it was 8.6 µM.

As to `NC(=O)C[S+]([O-])C(c1ccccc1)c1ccccc1` (centres unmarked) [modafanil], the “Ih channel inhibitor or not” value in the assay on Ih channel is “not to be an Ih channel inhibitor”.

By IC50 is commonly meant the concentration that gives 50% inhibition.
